This note sets out measurements from patent US7166642B1, “Use of cyclohexenone long-chain alcohol for treating neurodegenerative diseases” (Meiji Dairies Corporation, priority 1999, dated 2007).

A value given as a limit tells only on which side of the number the result lay.

Data set [1] deals with Neurons originating from the cerebral hemisphere of rat fetus. In words: Neurite-extension effect. It is filed as cell-based. Set-up: key to Neurite-extension effect: 0: No effect; +: Faintly effective; ++: Slightly effective; +++: Effective >160%; ++++: Remarkably effective >200%. To be noted: for activity at 0.01 µM: Rattus norvegicus, Neuron, 72 h; for activity at 0.01 µM / Neurite-extension effect: 1×10^−8 M, cultured for three days, phase-contrast microscope; for neurite-extension effect as compared with bFGF (in words): summary of Table 1. As to the method: Neurons originating from the cerebral hemisphere of rat fetus (13–15 days) were used. The neurons were cultured according to a method described by Borg, J. et al. (Borg, J. et al.: Dev. Brain Res., 18: 37, 1985). Neurons in an amount of 1.5×10^5 were dispersed on a polylysine-coated dish (35 mm), and DMEM (supplemented with insulin, transferrin, progesterone, sodium selenate, and putrescine) was added thereto in an amount of 3 ml. Compound (1) of the present invention was dissolved in ethanol, and then the solution was added thereto such that the concentration became 1×10^−8 M. The neurons had been cultured for three days without the culture medium being changed. Thereafter, the neurons were fixed by use of PBS containing 2% glutaraldehyde and observed under a phase-contrast microscope.

In data set [2] the test system is transgenic mice expressing an SOD-1 mutant gene. In words: Bar test for confirming the motor function in transgenic mice expressing the mutant SOD-1 gene. Format: in vivo, mouse. To be noted: 8 mg/kg i.p. three times a week; measured from 80 to 91 days after birth; metallic bar 10 mm diameter, 45 cm length. As to the method: (2) Meanwhile, during the survival test (1) of the transgenic mice, bar test for confirming the motor function was conducted. In this test, the mouse to which was administered compound of Preparation 10 and control mouse were compared in the time (seconds) required for their passing over a metallic bar having the size of 10 mm in diameter and 45 cm in length. The measurement was carried out from 80 days to 91 days after birth. […] However, when compared the difference between the time at the initial date and the time at the final date, of the mouse to which was administered compound of Preparation Example 10 and of the control mouse, the ratio of the difference of the mouse to which was administered compound of Preparation Example 10 to the difference of the control mouse was about 40%.

The subject of data set [3] is transgenic mice expressing an SOD-1 mutant gene (G86R). The data set is described as follows: Survival test for transgenic mice expressing an SOD-1 mutant gene. It is filed as in vivo, mouse. As to the method:
Ten transgenic mice were subjected to the survival test. The transgenic mice employed were those in which Gly-86 in the fourth exon of a mouse SOD-1 gene is mutated to Arg (G86R) (Ripps M. E., et al.: Proc. Natl. Acad. Sci. USA. 92: 689–693, 1995). The compound of Preparation Example 10 [3-(14-hydroxytetradecyl)-4-methyl-2-cyclohexen-1-one] was dissolved in ethanol/Tween 80/physiological saline (5/2.85/92.15). The solution was intraperitoneally (i.p.) administered to five specimens at an effective dose of 2 mg/kg for 40 continuous days, and physiological saline alone was similarly administered to the other five specimens. One mouse died due to injection complication before elapse of 90 days. The other four mice died at day 150. All control animals died at about day 90. The life was prolonged by 50% or more, which has high significance.
(1) Transgenic mice expressing an SOD-1 mutant gene were subjected to the survival test in the same manner as Test Example 1 except that 8 mg/kg of compound of Preparation Example 10 was intraperitoneally administered three times a week until the mice died. […] The life was prolonged by 30% or more.
(3) Moreover, in the survival test of transgenic mice (1), onset day (i.e., the day from which mouse becomes impossible to move) was compared between the mouse to which was administered compound of Preparation Example 10 and the control mouse. As a result, for the mouse to which was administered compound of Preparation Example 10, when compared to the control mouse, a prolonged time to the onset day by […] was observed, onset day being prolonged by 20%.

The melting point is the temperature of the solid-liquid transition. On to `CCCCCCCCCCC(O)C1=CC(=O)CCC1` (stereo not drawn) [Preparation Example 2, 3-(1-hydroxy-undecyl)-2-cyclohexen-1-one], for which the melting point is 34 to 35 °C.

With `O=C1C=C(CCCCCCCCCCCCO)CCC1` [Preparation Example 3, 3-(12-hydroxy-dodecyl)-2-cyclohexen-1-one], the melting point was 35 to 36 °C.

`CCCCCCCCCCCC(O)CC1=CC(=O)CCC1` (stereo not drawn) [Preparation Example 4, 3-(β-hydroxy-tridecyl)-2-cyclohexen-1-one] returned a melting point of 42 to 43 °C.

For the compound `O=C1C=C(CCCCCCCCCCCCCCO)CCC1` [Preparation Example 5, 3-(14-hydroxy-tetradecyl)-2-cyclohexen-1-one], the melting point fell in the range of 44 to 45 °C.

As for `CC1CCC(=O)C=C1CCCCCCCCCCCCO` (stereo not drawn) [Preparation Example 8, 3-(12-hydroxydodecyl)-4-methyl-2-cyclohexen-1-one], the activity at 0.01 µM in data set [1] is greater than 160%.

Take `CCCCCCCCCCCC(O)CC1=CC(=O)CCC1C` (stereo not drawn) [Preparation Example 9, 3-(β-hydroxytridecyl)-4-methyl-2-cyclohexen-1-one]: in data set [1], the activity at 0.01 µM was greater than 200% and the “neurite-extension effect as compared with bFGF (in words)” value is “remarkably excellent”.

Regarding `CC1CCC(=O)C=C1CCCCCCCCCCCCCCO` (stereo not drawn) [Preparation Example 10, 3-(14-hydroxytetradecyl)-4-methyl-2-cyclohexen-1-one], in data set [1], the activity at 0.01 µM was greater than 200% and the “neurite-extension effect as compared with bFGF (in words)” value is given as “remarkably excellent”. Also, the “ratio of the difference (time at initial date vs final date for passing the bar) of treated mouse to that of control mouse” value in data set [2] is “about 40%”. Moreover, the prolongation of life in data set [3] (Test Example 1: 2 mg/kg i.p. for 40 continuous days, versus saline control) is recorded as no less than 50%. In addition, in data set [3] (Test Example 1: 2 mg/kg i.p. for 40 continuous days, four of five mice (one died of injection complication before day 90), controls died at about day 90), the “day at which treated mice died” value was 150 days. Further, the “activity of mice during the test” value in data set [3] (Test Example 1, control mice were morbid and could not act appropriately) is recorded as “very active”. In data set [3] (Test Example 2: 8 mg/kg i.p. three times a week until death), the “survival of two of the treated mice” value is reported as “more than 200 days”. Moreover, the “day at which treated mice died, on average” value in data set [3] (Test Example 2: 8 mg/kg i.p. three times a week until death, controls died at around day 110) is roughly 150 days. In data set [3] (Test Example 2: 8 mg/kg i.p. three times a week, compared to control), the “prolongation of onset day” value came out at 20%. This compound also returned a prolongation of life in data set [3] (Test Example 2: 8 mg/kg i.p. three times a week, versus control) of no less than 30%.

Turning to `CC1(C)CCC(=O)C=C1CCCCCCCCCCCO` [Preparation Example 12, 3-(11-hydroxyundecyl)-4,4-dimethyl-2-cyclohexen-1-one], the Neurite-extension effect result in data set [1] is “++”.

Regarding `CC1(C)CCC(=O)C=C1CCCCCCCCCCCCO` [Preparation Example 13, 3-(12-hydroxydodecyl)-4,4-dimethyl-2-cyclohexen-1-one], the activity at 0.01 µM in data set [1] was greater than 160%.

Turning to `CCCCCCCCCCCC(O)CC1=CC(=O)CCC1(C)C` (stereo not drawn) [Preparation Example 14, 3-(β-hydroxytridecyl)-4,4-dimethyl-2-cyclohexen-1-one], the activity at 0.01 µM in data set [1] was greater than 160%.

With `CC1(C)CCC(=O)C=C1CCCCCCCCCCCCCCO` [Preparation Example 15, 3-(14-hydroxytetradecyl)-4,4-dimethyl-2-cyclohexen-1-one], the activity at 0.01 µM in data set [1] is greater than 160%.

For the compound `CC1=C(CCCCCCCCCCCCO)CCCC1=O` [Preparation Example 18, 3-(12-hydroxydodecyl)-2-methyl-2-cyclohexen-1-one], the Neurite-extension effect result in data set [1] is on record as “++”.

As to `CC1=C(CCCCCCCCCCCCCCO)CCCC1=O` [Preparation Example 20, 3-(14-hydroxytetradecyl)-2-methyl-2-cyclohexen-1-one], in data set [1], the activity at 0.01 µM was greater than 200% and the “neurite-extension effect as compared with bFGF (in words)” value is on record as “remarkably excellent”.

For the compound `CC1=C(CCCCCCCCCCC(C)O)C(C)(C)CCC1=O` (stereo not drawn) [Preparation Example 22, 3-(11-hydroxydodecyl)-2,4,4-trimethyl-2-cyclohexen-1-one], the Neurite-extension effect entry in data set [1] was “++”.

Consider `CC1=C(CCCCCCCCCCCCCCO)C(C)(C)CCC1=O` [Preparation Example 23, 3-(14-hydroxytetradecyl)-2,4,4-trimethyl-2-cyclohexen-1-one], for which, in data set [1], the activity at 0.01 µM was greater than 160% and the “neurite-extension effect as compared with bFGF (in words)” value was “remarkably excellent”.

On to `CC1=C(CCCCCCCCCCCCCCCO)C(C)(C)CCC1=O` [Preparation Example 24, 3-(15-hydroxypentadecyl)-2,4,4-trimethyl-2-cyclohexen-1-one], for which, in data set [1], the activity at 0.01 µM is greater than 200% and the “neurite-extension effect as compared with bFGF (in words)” value is reported as “remarkably excellent”.

Regarding “BFGF: bFGF, comparison substance in the neurite-extension test of Table 1 [reference compound]”, the Neurite-extension effect result in data set [1] is “++”.
